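Cultured in 96-well plates, cells were exposed to test compound for 48 hours across five concentrations. GI50 is the concentration that inhibits growth by half.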 Activity calls are given as the source filed them. Cut-off read from the data, not from the text of the source: active = GI50 up to about 1.1 µM and inactive = higher.
What was measured:
Assay in all cases: NCI tumour cell line growth inhibition, 48 h
786-0 = tested on: 786-0
A498 = tested on: A498
A549 = tested on: A549
ACHN = tested on: ACHN
CAKI-1 = tested on: CAKI-1
CCRF-CEM = tested on: CCRF-CEM
COLO 205 = tested on: COLO 205
DLD-1 = tested on: DLD-1
DMS-114 = tested on: DMS-114
DMS-273 = tested on: DMS-273
EKVX = tested on: EKVX
HCC 2998 = tested on: HCC 2998
HCT-15 = tested on: HCT-15
HOP-62 = tested on: HOP-62
HOP-92 = tested on: HOP-92
HT-29 = tested on: HT-29
IGROV-1 = tested on: IGROV-1
K562 = tested on: K562
KM-20L2 = tested on: KM-20L2
KM12 = tested on: KM12
LOX IMVI = tested on: LOX IMVI
LXFL 529 = tested on: LXFL 529
M14 = tested on: M14
MOLT-4 = tested on: MOLT-4
Malme-3M = tested on: Malme-3M
NCI-H226 = tested on: NCI-H226
NCI-H23 = tested on: NCI-H23
NCI-H460 = tested on: NCI-H460
NCI-H522 = tested on: NCI-H522
OVCAR-3 = tested on: OVCAR-3
OVCAR-4 = tested on: OVCAR-4
OVCAR-8 = tested on: OVCAR-8
RPMI-8226 = tested on: RPMI-8226
RXF 393 = tested on: RXF 393
RXF 631 = tested on: RXF 631
SF-268 = tested on: SF-268
SF-295 = tested on: SF-295
SF-539 = tested on: SF-539
SK-MEL-28 = tested on: SK-MEL-28
SK-MEL-2 = tested on: SK-MEL-2
SK-MEL-5 = tested on: SK-MEL-5
SK-OV-3 = tested on: SK-OV-3
SN12C = tested on: SN12C
SNB-19 = tested on: SNB-19
SNB-75 = tested on: SNB-75
SNB-78 = tested on: SNB-78
SR = tested on: SR
SW-620 = tested on: SW-620
TK-10 = tested on: TK-10
U-251 = tested on: U-251
UACC-257 = tested on: UACC-257
UACC-62 = tested on: UACC-62
UO-31 = tested on: UO-31
XF498 = tested on: XF498
HCT-116 = tested on: HCT-116
HL-60 = tested on: HL-60
M19-MEL = tested on: M19-MEL
OVCAR-5 = tested on: OVCAR-5
HOP-18 = tested on: HOP-18

O=[N+]([O-])c1ccc(NC2OCC(O)C(O)C2O)cc1 (stereo not drawn)
GI50 (786-0): > 100 µM (inactive)
GI50 (A498): > 100 µM (inactive)
GI50 (A549): > 100 µM (inactive)
GI50 (ACHN): > 100 µM (inactive)
GI50 (CAKI-1): > 100 µM (inactive)
GI50 (CCRF-CEM): > 100 µM (inactive)
GI50 (COLO 205): > 100 µM (inactive)
GI50 (DLD-1): > 100 µM (inactive)
GI50 (DMS-114): > 100 µM (inactive)
GI50 (DMS-273): > 100 µM (inactive)
GI50 (EKVX): > 100 µM (inactive)
GI50 (HCC 2998): > 100 µM (inactive)
GI50 (HCT-15): > 100 µM
GI50 (HOP-62): > 100 µM (inactive)
GI50 (HOP-92): > 100 µM (inactive)
GI50 (HT-29): > 100 µM (inactive)
GI50 (IGROV-1): > 100 µM (inactive)
GI50 (K562): > 100 µM (inactive)
GI50 (KM-20L2): > 100 µM (inactive)
GI50 (KM12): > 100 µM (inactive)
GI50 (LOX IMVI): > 100 µM (inactive)
GI50 (LXFL 529): > 100 µM (inactive)
GI50 (M14): > 100 µM (inactive)
GI50 (MOLT-4): > 100 µM (inactive)
GI50 (Malme-3M): > 100 µM (inactive)
GI50 (NCI-H226): > 100 µM (inactive)
GI50 (NCI-H23): > 100 µM (inactive)
GI50 (NCI-H460): > 100 µM (inactive)
GI50 (NCI-H522): > 100 µM (inactive)
GI50 (OVCAR-3): > 100 µM (inactive)
GI50 (OVCAR-4): > 100 µM (inactive)
GI50 (OVCAR-8): > 100 µM (inactive)
GI50 (RPMI-8226): > 100 µM (inactive)
GI50 (RXF 393): 43 µM (inactive)
GI50 (RXF 631): > 100 µM (inactive)
GI50 (SF-268): > 100 µM (inactive)
GI50 (SF-295): > 100 µM (inactive)
GI50 (SF-539): > 100 µM (inactive)
GI50 (SK-MEL-28): > 100 µM (inactive)
GI50 (SK-MEL-2): > 100 µM (inactive)
GI50 (SK-MEL-5): > 100 µM (inactive)
GI50 (SK-OV-3): > 100 µM (inactive)
GI50 (SN12C): > 100 µM (inactive)
GI50 (SNB-19): > 100 µM (inactive)
GI50 (SNB-75): > 100 µM (inactive)
GI50 (SNB-78): > 100 µM (inactive)
GI50 (SR): > 100 µM (inactive)
GI50 (SW-620): > 100 µM (inactive)
GI50 (TK-10): > 100 µM (inactive)
GI50 (U-251): > 100 µM (inactive)
GI50 (UACC-257): > 100 µM (inactive)
GI50 (UACC-62): > 100 µM (inactive)
GI50 (UO-31): > 100 µM (inactive)
GI50 (XF498): > 100 µM (inactive)

COC(=O)[C@]1(C)CCC[C@]2(C)C3CC4OOC3(C=C4C(C)(C)O)CCC21 (stereo partly drawn)
GI50 (786-0): 30.1 µM (inactive)
GI50 (A498): 24.4 µM (inactive)
GI50 (A549): 38.4 µM (inactive)
GI50 (ACHN): 47.8 µM (inactive)
GI50 (CAKI-1): 64.6 µM (inactive)
GI50 (CCRF-CEM): 21.6 µM (inactive)
GI50 (COLO 205): 69.8 µM (inactive)
GI50 (DLD-1): 28.4 µM (inactive)
GI50 (DMS-114): 30.8 µM (inactive)
GI50 (EKVX): 75.2 µM (inactive)
GI50 (HCT-116): 31.8 µM (inactive)
GI50 (HCT-15): 37.8 µM
GI50 (HL-60): 14.3 µM (inactive)
GI50 (HOP-62): > 100 µM (inactive)
GI50 (HT-29): 22.6 µM (inactive)
GI50 (IGROV-1): 72.4 µM (inactive)
GI50 (K562): 21.9 µM (inactive)
GI50 (KM-20L2): 35.8 µM (inactive)
GI50 (KM12): 42.7 µM (inactive)
GI50 (LOX IMVI): 36.8 µM (inactive)
GI50 (LXFL 529): 22.2 µM (inactive)
GI50 (M14): 31 µM (inactive)
GI50 (M19-MEL): 43 µM (inactive)
GI50 (MOLT-4): 22.2 µM (inactive)
GI50 (Malme-3M): > 100 µM (inactive)
GI50 (NCI-H226): 31.1 µM (inactive)
GI50 (NCI-H23): 94 µM (inactive)
GI50 (NCI-H460): 33.5 µM (inactive)
GI50 (NCI-H522): 20.2 µM (inactive)
GI50 (OVCAR-3): > 100 µM (inactive)
GI50 (OVCAR-4): 72.9 µM (inactive)
GI50 (OVCAR-5): > 100 µM (inactive)
GI50 (OVCAR-8): 34.6 µM (inactive)
GI50 (RPMI-8226): 16.7 µM (inactive)
GI50 (RXF 631): > 100 µM (inactive)
GI50 (SF-268): 60.1 µM (inactive)
GI50 (SF-295): 95.9 µM (inactive)
GI50 (SF-539): > 100 µM (inactive)
GI50 (SK-MEL-2): > 100 µM (inactive)
GI50 (SK-MEL-5): 34.6 µM (inactive)
GI50 (SK-OV-3): 76.7 µM (inactive)
GI50 (SN12C): > 100 µM (inactive)
GI50 (SNB-19): > 100 µM (inactive)
GI50 (SNB-78): 30.8 µM (inactive)
GI50 (SW-620): 36.1 µM (inactive)
GI50 (TK-10): > 100 µM (inactive)
GI50 (U-251): > 100 µM (inactive)
GI50 (UACC-257): 80.5 µM (inactive)
GI50 (UACC-62): 29.2 µM (inactive)
GI50 (UO-31): > 10 µM (inactive)
GI50 (XF498): 20.6 µM (inactive)

COC(=O)C1=C(C(=O)OC)C2(OC(C)=O)c3ccccc3-c3ccccc3C12 (stereo not drawn)
GI50 (786-0): 4.23 µM (inactive)
GI50 (A498): 18.1 µM (inactive)
GI50 (A549): 17.3 µM (inactive)
GI50 (ACHN): 2.54 µM (inactive)
GI50 (CAKI-1): 2.16 µM (inactive)
GI50 (CCRF-CEM): 0.733 µM (active)
GI50 (COLO 205): 1.63 µM (inactive)
GI50 (DLD-1): 1.7 µM (inactive)
GI50 (DMS-114): 5.37 µM (inactive)
GI50 (DMS-273): 4.98 µM (inactive)
GI50 (EKVX): 10.6 µM (inactive)
GI50 (HCC 2998): 16.7 µM (inactive)
GI50 (HCT-116): 3.66 µM (inactive)
GI50 (HCT-15): 5.26 µM
GI50 (HL-60): 4.85 µM (inactive)
GI50 (HOP-18): 5.2 µM (inactive)
GI50 (HOP-62): 20 µM (inactive)
GI50 (HOP-92): 1.77 µM (inactive)
GI50 (HT-29): 5.47 µM (inactive)
GI50 (IGROV-1): 3.74 µM (inactive)
GI50 (K562): 1.83 µM (inactive)
GI50 (KM-20L2): 6.15 µM (inactive)
GI50 (KM12): 12.5 µM (inactive)
GI50 (LOX IMVI): 5.09 µM (inactive)
GI50 (LXFL 529): 1.7 µM (inactive)
GI50 (M14): 4.79 µM (inactive)
GI50 (M19-MEL): 4.56 µM (inactive)
GI50 (MOLT-4): 1.96 µM (inactive)
GI50 (Malme-3M): 2.25 µM (inactive)
GI50 (NCI-H226): 16.5 µM (inactive)
GI50 (NCI-H23): 11.5 µM (inactive)
GI50 (NCI-H460): 17 µM (inactive)
GI50 (NCI-H522): 1.44 µM (inactive)
GI50 (OVCAR-3): 5.53 µM (inactive)
GI50 (OVCAR-4): 2.47 µM (inactive)
GI50 (OVCAR-5): 14.2 µM (inactive)
GI50 (OVCAR-8): 5.93 µM (inactive)
GI50 (RPMI-8226): 2.62 µM (inactive)
GI50 (RXF 393): 4.8 µM (inactive)
GI50 (SF-268): 7.62 µM (inactive)
GI50 (SF-295): 17.9 µM (inactive)
GI50 (SF-539): 17.2 µM (inactive)
GI50 (SK-MEL-28): 5.27 µM (inactive)
GI50 (SK-MEL-2): 14.5 µM (inactive)
GI50 (SK-MEL-5): 14.1 µM (inactive)
GI50 (SK-OV-3): 15.5 µM (inactive)
GI50 (SN12C): 4.89 µM (inactive)
GI50 (SNB-19): > 40.7 µM (inactive)
GI50 (SNB-75): 11.7 µM (inactive)
GI50 (SNB-78): 4.95 µM (inactive)
GI50 (SR): 2.33 µM (inactive)
GI50 (SW-620): 1.66 µM (inactive)
GI50 (TK-10): 3.6 µM (inactive)
GI50 (U-251): 7.87 µM (inactive)
GI50 (UACC-257): 5.96 µM (inactive)
GI50 (UACC-62): 11 µM (inactive)
GI50 (UO-31): 4.68 µM (inactive)
GI50 (XF498): 12.4 µM (inactive)

From ChEMBL document CHEMBL1201862, “PubChem BioAssay data set” (2004)
